This data set can be described thus: Head-to-tail amide by intramolecular native chemical ligation: N,S-acyl shift of a C-terminal N-2-[thioethyl]glycine residue on TentaGel, transthioesterification with 50 equiv external thiol (MESNa or MPAA), then attack by N-terminal Cys and S,N-acyl shift, one pot. The following applies: the molecule shown is the open-chain precursor, aqueous: procedure B citrate pH 3 then phosphate pH 7.4 (DTT), procedure C 1 M TEAB pH 7.0 (MPAA, DTT), resin, 48.0 h, 2 steps.

“H-Cys-Arg-Cys-Leu-Cys-Arg-Arg-Gly-Val-Cys-Arg-Cys-Ile-Cys-Thr-Arg-Gly-Phe-[N-2-(thioethyl)Gly]-linker-TentaGel (linker Ala-Ala-Met or bAla-Ala-bAla-Met, text inconsistent; side chains unprotected, all Cys as free SH; via MPAA thioester)”: the ring closure, yield over several steps (54-membered ring) stood at 39%. “H-Cys-Thr-Lys-Ser-Ile-Pro-Pro-Ile-Cys-Phe-Pro-Asp-Gly-Arg-[N-2-(thioethyl)Gly]-linker-TentaGel (linker Ala-Ala-Met or bAla-Ala-bAla-Met, text inconsistent; side chains unprotected, both Cys as free SH; via MPAA thioester)”: the ring closure, yield over several steps (42-membered ring) came out at 40%.

As for `C[C@@H](O)[C@H](NC(=O)[C@H](Cc1ccccc1)NC(=O)[C@@H]1CCCN1C(=O)[C@H](CC(N)=O)NC(=O)[C@@H]1CCCN1C(=O)[C@H](Cc1ccccc1)NC(=O)[C@@H](N)CS)C(=O)Sc1ccc(CC(=O)O)cc1`, the ring closure, yield over several steps (21-membered ring) stood at 55%.

On to `C[C@H](NC(=O)[C@H](CCCCN)NC(=O)[C@@H]1CCCN1C(=O)CNC(=O)[C@H](Cc1ccccc1)NC(=O)[C@@H](N)CS)C(=O)SCCS(=O)(=O)O`, for which the ring closure, yield over several steps (18-membered ring) stood at 25.8%. On to `C[C@H](NC(=O)[C@H](CCCCN)NC(=O)[C@@H]1CCCN1C(=O)[C@@H](N)CS)C(=O)SCCS(=O)(=O)O`, for which the ring closure, yield over several steps (12-membered ring) came to 24.1%.

These data come from publication PMC8419835.
